Laboratory results published in patent US8617871B2, “Method and culture medium for enhanced detection of Mycobacterium” (bioMerieux, Inc., priority 2009, dated 2013).
Where “and” joins values, the source holds several entries; their conditions need not be identical. Equal entries are not always repeated. Where two headings read alike, the source gives them in different places.

Legend:
M. tuberculosis = experiment: Time to detection (TTD) of growth in BacT/ALERT MP culture bottles; type: cell-based, Mycobacterium tuberculosis; settings: for # Positive: of # Tested
M. kansasii = experiment: as above; type: cell-based, Mycobacterium kansasii; settings: for effect on the growth (as determined by TTD of growth): Mycobacterium kansasii, compared to a culture medium that contained no antimicrobial agents; for # Positives: M. kansasii 12478, of # Tested
Procedure: (§1) For the new NS, an autoclaved or new BacT/ALERT® MP bottle was used (as described hereinabove) and for conventional/old RF, conventional/old MP bottle (bioMérieux, Inc.) was used. […] The conventional MAS (using conventional/old RF) and new MAS formulas (using NS) were added to the second set of MP culture bottles. The experiment was performed with mycobacteria species at 0.5×10^3 CFU/ml and CRF cultures at 0.5×10^5 CFU/ml.
(§2) The mycobacteria inoculum was 0.5×10^3 CFU/ml.

M. scrofulaceum = experiment: as above; type: cell-based, Mycobacterium scrofulaceum; settings: for effect on the growth (as determined by TTD of growth): Mycobacterium scrofulaceum, compared to a culture medium that contained no antimicrobial agents; for # Positives: of # Tested
Procedure: as §1, §2

M. intracellulare = type: cell-based, Mycobacterium intracellulare
M. avium = type: cell-based, Mycobacterium avium
[1] = system: contaminating respiratory flora (CRF); type: cell-based
M. fortuitum = experiment: Time to detection (TTD) of growth in BacT/ALERT MP culture bottles; type: cell-based; settings: M. fortuitum 6841; for # Positives: of # Tested
[2] = M. tuberculosis 27294, Media + AZL 24
[3] = M. scrofulaceum 19981, Media + VAN 3.5

Compound: CC1(C)S[C@@H]2[C@H](NC(=O)[C@H](NC(=O)N3CCNC3=O)c3ccccc3)C(=O)N2[C@H]1C(=O)O [AZL, azlocillin]
- # Positive (M. tuberculosis; M. tuberculosis 25177, Media + AZL12): 4.0
- # Positive (M. tuberculosis; M. tuberculosis 25177, Media + AZL 24): 2.0
- # Positive (M. tuberculosis; M. tuberculosis 25177, Media + AZL 48): 2.0
- # Positive (M. tuberculosis; M. tuberculosis 27294, Media + AZL12): 4.0
- Average TTD (M. tuberculosis; [2]): 16.0 days
- # Positive (M. tuberculosis; [2]): 4.0
- # Positive (M. tuberculosis; M. tuberculosis 27294, Media + AZL 48): 4.0
- effect on the growth (as determined by TTD of growth) (M. tuberculosis; Mycobacterium tuberculosis, compared to a culture medium that contained no antimicrobial agents): negative effect
- effect on the growth (as determined by TTD of growth) (M. kansasii): negative effect
- effect on the growth (as determined by TTD of growth) (M. scrofulaceum): negative effect
- effect on the growth (as determined by TTD of growth) (M. intracellulare): negative effect

Compound: O=C(O)CCC(=O)C(=O)O [α-keto glutarate, α-ketoglutarate]
- No. of positives (M. tuberculosis): 3
- reduction in time to detection (TTD) of growth (M. tuberculosis): two
- Avg. TTD (M. intracellulare): 9.0 days and 8.8 days
- No. of positives (M. intracellulare): 3
- reduction in time to detection (TTD) of growth (M. intracellulare): two
- No. of positives (M. avium): 3
- reduction in time to detection (TTD) of growth (M. avium): two

Compound: C[C@@H]1O[C@@H]1P(=O)(O)O [fosfomycin]
- ability to suppress contaminating respiratory flora (CRF) [1]: the best choice for suppression of CRF

Compound: CN[C@H](CC(C)C)C(=O)N[C@H]1C(=O)N[C@@H](CC(N)=O)C(=O)N[C@H]2C(=O)N[C@H]3C(=O)N[C@H](C(=O)N[C@H](C(=O)O)c4cc(O)cc(O)c4-c4cc3ccc4O)[C@H](O)c3ccc(c(Cl)c3)Oc3cc2cc(c3O[C@@H]2O[C@H](CO)[C@@H](O)[C@H](O)[C@H]2O[C@H]2C[C@](C)(N)[C@H](O)[C@H](C)O2)Oc2ccc(cc2Cl)[C@H]1O [VAN, vancomycin]
- effect on the growth (as determined by TTD of growth) (M. tuberculosis): negative effect
- # Positives (M. kansasii; Media + VAN 1.75): 4.0
- # Positives (M. kansasii; Media + VAN 3.5): 2.0
- effect on the growth (as determined by TTD of growth) (M. kansasii): negative effect
- # Positives (M. scrofulaceum; M. scrofulaceum 19981, Media + VAN 1.75): 4.0
- Average TTD (M. scrofulaceum; [3]): 14.0 days
- # Positives (M. scrofulaceum; [3]): 4.0
- # Positives (M. scrofulaceum; M. scrofulaceum 19981, Media + VAN 7): 1.0
- effect on the growth (as determined by TTD of growth) (M. scrofulaceum): negative effect
- Average TTD (M. fortuitum; Media + VAN 1.75): 4.7 days
- # Positives (M. fortuitum; Media + VAN 1.75): 4.0
- Average TTD (M. fortuitum; Media + VAN 3.5): 4.1 days
- # Positives (M. fortuitum; Media + VAN 3.5): 4.0
- Average TTD (M. fortuitum; Media + VAN 7): 4.8 days
- # Positives (M. fortuitum; Media + VAN 7): 4.0
